What all share (assay type): in vivo
One assay deals with Aphis fabae. The assay can be described thus: Activity in prophylactic treatment of leaf discs against Aphis fabae. Conditions: Aphis fabae, foliar, 48 h; 0.1% aqueous preparation; field bean leaf discs infested with wingless stages; 2 days at 25 C; percentage mortality, Abbott's method. The protocol: From the primary leaf of field beans (Phaseolus vulgaris nanus Aschers.), 24 mm diameter discs were cut. Some of these were treated with a 0.1% aqueous preparations of compounds of the invention and these along side untreated discs were placed on filter papers with the underside of the leaves turned upwards. After drying the test pieces, they were each infested with wingless stages of Aphis fabae (approx 100 per leaf piece). The experiment was replicated 3 times. The leaves were kept on wet filter papers for 2 days at 25 C and 16 hours light per day. The percentage mortality was then estimated and the activity calculated using Abbott's method in comparison with the untreated controls.

The test system of assay [1] is two spotted mite (Tetranychus urticae Koch). Briefly: Use Example C: activity in the prophylactic treatment of feed against the two spotted mite. Conditions: foliar, 0.1 % aqueous preparation, field bean leaf discs, adults and eggs counted after 3 days at 25 C, larvae after a further 7 days, Abbott's method. As to the method:
Activity in the prophylactic treatment of feed against the two spotted mite (Tetranychus urticae Koch)
From the primary leaf of field beans (Phaseolus vulgaris nanus Aschers.) 14 mm diameter discs were cut. Some of these were treated with a 0.1 % aqueous preparations of compounds of the invention and these along side untreated discs were placed on filter papers with the underside of the leaves turned upwards. After drying the test pieces, they were each infested with six adult female Tetranychus urticae and maintained for 3 days at 25 C and 16 hours light per day. The experiment was replicated 4 times. Dead and alive adults were then counted and removed. Similarly the number of eggs laid were counted. After a further 7 days, the number of living larvae were counted, the activity calculated using Abbott's method in comparison with the untreated controls.

The test system of assay [2] is corn rootworm (Diabrotica undecimpunctata). Briefly: Use Example D: activity against eggs/larvae of the corn rootworm. Conditions: Diabrotica undecimpunctata, 168 h; aqueous emulsion 0.1%, 0.2 ml pipetted into soil; 7 days at 25 C; death of eggs or newly hatched larvae. The protocol: Activity against eggs/larvae of the corn rootworm (Diabrotica undecimpunctata)
The compounds of the invention were made up as aqueous emulsions at a concentration of 0.1%. Into the soil in polystyrene petri dishes, containing maize seedlings (1 seedling/dish) and ca. 50 eggs of the corn rootworm (Diabrotica undecimpunctata) were pipetted 0.2 ml of these preparations. The closed dishes were left at 25 C under extended daylight conditions for 7 days. The criterion for judging the activity was the death of eggs or newly hatched larvae at the end of the test.

Assay [3] relates to cotton army worm (Spodoptera littoralis). Briefly: Use Example F: ovicidal activity against eggs of the cotton army worm. Conditions: aqueous preparation 0.1 %; one day old eggs dipped; four days; % inhibition of hatching of the eggs. An excerpt: Ovicidal activity against eggs of the cotton army worm (Spodoptera littoralis).
The compounds of the invention were made up as aqueous preparations at a concentration of 0.1 %. One day old eggs that had been laid on filter paper by fertilised female moths were dipped in the preparations until they were completely wet and then placed in closed petri dishes in the laboratory under extended daylight conditions for four days. The % inhibition of hatching of the eggs in comparison with untreated eggs indicates the level of activity.

The test system of assay [4] is cotton bollworm (Heliothis viriscens). The assay can be described thus: whole plant or invertebrate. To be noted: 48 h, read-out: activity. As to the method: Activity against larvae (L1) of the cotton bollworm (Heliothis viriscens)
Compounds of the invention were made up as aqueous preparations at a concentration of 0.1 %. Into these, feed material was dipped for 2 seconds. After drying the feed material was put into into polystyrene petri dishes. After an hour, 10 L1 of the cotton bollworm (Heliothis viriscens) were counted into the dishes. The closed dishes were left for up to 7 days at 25 °C under extended daylight conditions. The % mortality of the larvae after two days indicated the level of activity.

In assay [5] the test system is Sheep blowfly (Lucilia sericata). The assay can be described thus: whole plant or invertebrate. To be noted: 24 h, read-out: LCso. The protocol: Activity against Sheep blowfly (Lucilia sericata)
1 ml aliquots of acetone solutions or suspensions, containing test compound at various concentrations, were applied to cotton wool dental rolls (1 cm x 2 cm), contained in glass vials 2 cm diameter x 5 cm long. After drying, the treated materials were then impregnated with 1 ml of nutrient solution, infested with approximately 30 first instar larvae of sheep blow fly (Lucilia sericata), closed by a cotton wool plug and held at 25 C for 24 hours.

In assay [6] the test system is house fly (Musca domestica). The assay can be described thus: Use Example J: activity against house fly. Conditions: adult houseflies on treated filter papers; 22 C for 24 hours. The protocol:
Activity against house fly (Musca domestica)
Aliquots (0.7 ml) of acetone solutions or suspensions of test compounds at various concentrations were applied to filter papers (9 cm diameter) placed in the bottom of petri dishes (9 cm diameter) closed by glass lids. After evaporation of solvent, the treated surfaces, together with controls treated with acetone alone, were then infested with adult houseflies, (Musca domestica) and held at 22 C for 24 hours. The percentage mortality of the insects was then recorded.

The next assay deals with Boophilus microplus. The assay can be described thus: whole plant or invertebrate. Conditions: Rhipicephalus microplus, 48 h, read-out: concentration causing 50% mortality. As to the method:
Tickicidal activity against Boophilus microplus
9 cm diameter filter papers were impregnated with 1 ml aliquots of acetone solutions of test compound at various concentrations. The papers were allowed to dry and then folded into envelopes in which cattle tick larvae, (Boophilus microplus) were enclosed and held at 25°C and 80% R.H. for 48 hours. The percentage mortality of tick larvae was then recorded and compared with controls.

Assay [7] has as its system brown rice-hoppers (Niliparvata lugens Stal). Briefly: Use Example B: activity in prophylactic treatment of leaves against brown rice-hoppers. Conditions: 48 h, read-out: activity. An excerpt:
Activity in prophylactic treatment of leaves against brown rice-hoppers (Niliparvata lugens Stal)
Rice seedlings (Oryzae sativa L.) in the two leaf stage (about 10 per polystyrene pot of size 6.5 x 6.5 cm) were either untreated or […] until dripping wet, with an aqueous preparation containing 0.1 % of active material. After drying the sprayed leaves, a transparent cylinder was placed over each pot and through an opening, about 30 brown rice-hoppers (Niliparvata lugens) in the 4-5 stage, anaesthetised with carbon dioxide, were introduced into each pot. After closing the opening with a fine mesh screen, the pots were kept for 2 days at 28° C and 16 hours/day of light in the glasshouse, the amount of dead hoppers was determined. The percentage mortality was then estimated and the activity calculated using Abbott's method in comparison with the untreated controls.

Assay [8] has as its system corn rootworm (Diabrotica undecimpunctata). The assay can be described thus: Use Example E: soil insecticide activity against eggs/larvae of the corn rootworm. To be noted: aqueous preparation 0.0025%, 5 ml into 50 cm^3 earth, 10 days at 25 C.
Method: Soil insecticide activity against eggs/larvae of the corn rootworm (Diabrotica undecimpunctata)
5 ml of these preparations were pipetted into 300 ml clear plastic beakers, containing 50 cm^3 earth and ca. 50 Diabrotica eggs, as well as 2 presoaked maize seeds. The sealed pots were left for 10 days under extended daylight conditions at 25 C. The criterion for judging the activity after 10 days was the larvicidal activity and the root growth of the emerging maize plants in the treated pots in comparison with untreated controls.
The subject of assay [9] is cotton bollworm (Heliothis viriscens). Briefly: Use Example H: ovicidal activity against eggs of the cotton bollworm. Conditions: aqueous preparation 0.1 %; one day old eggs dipped; four days; % inhibition of hatching of the eggs. The text has this: Ovicidal activity against eggs of the cotton bollworm (Heliothis viriscens)
The compounds of the invention were made up as aqueous preparations at a concentration of 0.1 %. One day old eggs that had been laid on filter paper by fertilised female moths were dipped in the preparations until they were completely wet and then placed in closed petri dishes under extended daylight conditions for four days. The % inhibition of hatching of the eggs in comparison with untreated eggs indicates the level of activity.

This note sets out measurements from patent EP0378285A1, “Substituted alkenes, processes for their preparation and their use as pesticides” (priority 1989, dated 1990).

As for `C=C(C)C(C)(C)COCc1ccc(F)c(Oc2ccccc2)c1` [Example 5, 4-(4-fluoro-3-phenoxybenzyloxy)-2,3,3-trimethyl-1-butene], the mortality at 0.1 % in the assay with Aphis fabae was at least 80%; in assay [1], 80 to 100%; in assay [2] it was 80 to 100%; in [4], 80 to 100%. Further, the activity in [3] is on record as 80 - 100%. Besides, the LC50 is under 300 µg/mL in assay [5] and at most 100 µg/mL with Boophilus microplus. In addition, the LDso entry in assay [6] is given as “less than 1000 mg/m^2”.
Regarding `C=C(C)C(C)(C)COCc1cccc(Oc2ccccc2)c1` [Example 16, 4-(3-phenoxybenzyloxy)-2,3,3-trimethyl-1-butene], the mortality at 0.1 % in [7] was at least 80%. The mortality at 0.0025 % in [8] (Diabrotica undecimpunctata, soil, 240 h, read-out: larvicidal activity) lay within 90 to 100%. The “root growth of the emerging maize plants” value in [8] (in comparison with untreated controls) was “good root growth”. For the same compound, the LC50 was under 300 µg/mL in assay [5] and at most 100 µg/mL in the assay on Boophilus microplus. In addition, the LDso entry in [6] was “less than 1000 mg/m^2”.
Turning to `C=C(C)C(C)(C)COCc1ccc(F)c(Nc2ccccc2)c1` [Example 20, 4-(3-anilino-4-fluorobenzyloxy)-2,3,3-trimethyl-1-butene], the mortality at 0.1 % in the assay on Aphis fabae is at least 80%; in assay [7] it was at least 80%; in [1], 80 to 100%; in assay [2] it was 80 to 100%; in assay [4], 80 to 100%. In addition, the activity in [9] was 80 - 100%.
